SMILES strings stand for the structures.

The assay deals with hMRGX2 (CHO-K1 cells overexpressing MRGX2) (Homo sapiens (Human), UniProt Q96LB1). The assay is described as follows: In vitro inhibition (EC50) of intracellular calcium flux, FLIPR Tetra, substance P stimulation. The conditions noted are these: stimulated with MRGX2 ligand substance P, FLIPR Calcium 5, read-out: hMRGX2 Cellular Potency (pEC50) (converted). Type of assay: cell-based. As for the experimental part: In Vitro Inhibition (EC50) of Intracellular Calcium Flux
Sequence of hMRGX2 (CHO-K1 cells overexpressing MRGX2) (Q96LB1 whole entry): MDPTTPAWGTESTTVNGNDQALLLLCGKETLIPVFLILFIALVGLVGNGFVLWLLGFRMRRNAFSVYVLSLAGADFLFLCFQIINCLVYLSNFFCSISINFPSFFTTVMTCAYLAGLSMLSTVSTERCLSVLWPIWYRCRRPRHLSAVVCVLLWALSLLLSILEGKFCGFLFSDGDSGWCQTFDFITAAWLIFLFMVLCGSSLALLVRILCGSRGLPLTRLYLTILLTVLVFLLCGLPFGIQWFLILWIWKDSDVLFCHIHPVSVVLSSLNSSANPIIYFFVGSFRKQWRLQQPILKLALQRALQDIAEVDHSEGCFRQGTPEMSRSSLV
The release of intracellular calcium following stimulation of cells with substance P in the presence or absence of inhibitor compounds was measured using the FLIPR Tetra® system. CHO-K1 cells overexpressing MRGX2 were seeded into 384-well plates (Black clear bottom, TC-treated, Fisher #07-200-655) and incubated overnight to allow for cell attachment. Media was removed, and 1× loading buffer (FLIPR® Calcium 5 assay solution, Molecular Devices, per manufacturer specifications) was added. The plates were incubated at 37° C. for 30 minutes. Test compounds were added to cells (11-point dose response, 10 µM maximum concentration) and fluorescence measured (120 seconds, in real time) using the FLIPR Tetra® system. Immediately following, MRGX2 ligand substance P was added at a final concentration of 1 µM and fluorescence measured (120 seconds, in real time) using the FLIPR Tetra® system. The data for the examples are reported as pEC50.
Turning to `COC(C)CNC1=NS(=O)(=O)c2cccc(-c3cccc(F)c3F)c2N1` (racemic) [Example 23, 5-(2,3-difluorophenyl)-3-((2-methoxypropyl)amino)-4H-benzo[e][1,2,4]thiadiazine 1,1-dioxide], the EC50 is 41.1 nM.
Under `COC(C)CCNC1=NS(=O)(=O)c2cccc(-c3cccc(F)c3Cl)c2N1` (racemic) [Example 153, 5-(2-chloro-3-fluorophenyl)-3-((3-methoxybutyl)amino)-4H-benzo[e][1,2,4]thiadiazine 1,1-dioxide] stands 27.3 nM; under `CO[C@H](C)CNC1=NS(=O)(=O)c2cccc(-c3cccc(F)c3F)c2N1` (single isomer, unassigned) [Example 24], 64.1 nM.
`CO[C@H](C)CNC1=NS(=O)(=O)c2cccc(-c3cc(F)cc(F)c3)c2N1` (single isomer, unassigned) [Example 85]: the EC50 is 249 nM.
To `CO[C@@H](C)CNC1=NS(=O)(=O)c2cccc(-c3cc(F)cc(F)c3)c2N1` (single isomer, unassigned) [Example 86] belongs over 50100 nM; to `CO[C@@H](C)CNC1=NS(=O)(=O)c2cccc(-c3cc(F)cc(F)c3F)c2N1` (single isomer, unassigned) [Example 128], 24.9 nM.
Turning to `CO[C@H](C)CNC1=NS(=O)(=O)c2cccc(-c3cc(F)cc(F)c3F)c2N1` (single isomer, unassigned) [Example 129], the EC50 was 2690 nM.
Consider `CO[C@H](C)CCNC1=NS(=O)(=O)c2cccc(-c3cccc(F)c3Cl)c2N1` (single isomer, unassigned) [Example 154], for which the EC50 is 32.2 nM.
To `O=S1(=O)N=C(NCc2nccs2)Nc2c(-c3cccc(F)c3Cl)cc(F)cc21` [Example 5, 5-(2-chloro-3-fluorophenyl)-7-fluoro-3-((thiazol-2-ylmethyl)amino)-4H-benzo[e][1,2,4]thiadiazine 1,1-dioxide] belongs 20 nM.
Under `CC(NC1=NS(=O)(=O)c2cc(F)cc(-c3cccc(F)c3Cl)c2N1)c1nccs1` (stereo not shown) [Example 8, 5-(2-chloro-3-fluorophenyl)-7-fluoro-3-((1-(thiazol-2-yl)ethyl)amino)-4H-benzo[e][1,2,4]thiadiazine 1,1-dioxide] stands 110 nM; under `CC(NC1=NS(=O)(=O)c2cc(F)cc(-c3cccc(F)c3Cl)c2N1)c1cscn1` (stereo not shown) [Example 9, 5-(2-chloro-3-fluorophenyl)-7-fluoro-3-((1-(thiazol-4-yl)ethyl)amino)-4H-benzo[e][1,2,4]thiadiazine 1,1-dioxide], 146 nM.
Under `O=S1(=O)N=C(NCC(F)F)Nc2c(-c3cccc(F)c3Cl)cc(F)cc21` [Example 10, 5-(2-chloro-3-fluorophenyl)-3-((2,2-difluoroethyl)amino)-7-fluoro-4H-benzo[e][1,2,4]thiadiazine 1,1-dioxide] stands 39.3 nM; under `O=S1(=O)N=C(NCCF)Nc2c(-c3cccc(F)c3Cl)cc(F)cc21` [Example 11, 5-(2-chloro-3-fluorophenyl)-7-fluoro-3-((2-fluoroethyl)amino)-4H-benzo[e][1,2,4]thiadiazine 1,1-dioxide], 127 nM.
On to `CNC1=NS(=O)(=O)c2cc(F)cc(-c3ccccc3Cl)c2N1` [Example 13, 5-(2-chlorophenyl)-7-fluoro-3-(methylamino)-4H-benzo[e][1,2,4]thiadiazine 1,1-dioxide], for which the EC50 was 35.5 nM.
On to `COCCNC1=NS(=O)(=O)c2cc(F)cc(-c3ccccc3Cl)c2N1` [Example 14, 5-(2-chlorophenyl)-7-fluoro-3-((2-methoxyethyl)amino)-4H-benzo[e][1,2,4]thiadiazine 1,1-dioxide], for which the EC50 was 40.6 nM.
Under `CCNC1=NS(=O)(=O)c2cc(F)cc(-c3ccccc3Cl)c2N1` [Example 15, 5-(2-chlorophenyl)-3-(ethylamino)-7-fluoro-4H-benzo[e][1,2,4]thiadiazine 1,1-dioxide] stands 62.4 nM.
